Legend:
[1] = target: T1, purified human autoBACE-2 (Homo sapiens, UniProt Q9Y5Z0); assay: BACE-2 Assay (BACE-HTRF assay); type: biochemical; settings: Ki calculated from IC50 using the Cheng-Prusoff equation; QSY7-EISEVNLDAEFC-Eu-amide substrate 200 nM final, pH 5.0, 30°C; read-out: BACE2 Ki
T1 sequence (Q9Y5Z0 63-473 limits assumed): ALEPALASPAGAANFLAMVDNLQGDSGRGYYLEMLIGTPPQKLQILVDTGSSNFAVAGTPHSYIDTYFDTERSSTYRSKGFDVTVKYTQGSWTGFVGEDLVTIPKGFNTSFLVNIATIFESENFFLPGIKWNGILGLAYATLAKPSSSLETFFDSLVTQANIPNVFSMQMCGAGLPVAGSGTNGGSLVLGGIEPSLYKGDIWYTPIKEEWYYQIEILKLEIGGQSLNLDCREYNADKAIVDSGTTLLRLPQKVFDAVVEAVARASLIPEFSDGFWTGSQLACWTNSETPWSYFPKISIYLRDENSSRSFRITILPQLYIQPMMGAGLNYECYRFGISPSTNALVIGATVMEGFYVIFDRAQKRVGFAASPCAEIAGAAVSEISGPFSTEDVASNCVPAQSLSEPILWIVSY
Experimental: Inhibitor IC50's at purified human autoBACE-2 are determined in a time-resolved endpoint proteolysis assay that measures hydrolysis of the QSY7-[…]-Eu-amide FRET peptide substrate (BACE-HTRF assay). […] Inhibitor compounds, prepared at 3x the desired final concentration in 1x BACE assay buffer (20 mM sodium acetate pH 5.0,10% glycerol, 0.1% Brij-35) supplemented with 7.5% DMSO are pre-incubated with an equal volume of autoBACE-2 enzyme diluted in 1x BACE assay buffer (final enzyme concentration 1 nM) in black 384-well NUNC plates for 30 minutes at 30°C. […] DMSO is present at 5% final concentration in the assay. Following laser excitation of sample wells at 320 nm, the fluorescence signal at 620 nm is collected for 400 ms following a 50 µs delay on a RUBYstar HTRF plate reader (BMG Labtechnologies). Raw RFU data is normalized to maximum (1.0 nM BACE/DMSO) and minimum (no enzyme/DMSO) RFU values. […] The Ki values are calculated from the IC50 using the Cheng-Prusoff equation.

[2] = target: soluble human BACE1 catalytic domain (Homo sapiens, UniProt P56817); assay: BACE1 HTRF FRET Assay; type: biochemical; settings: Ki calculated from IC50 using the Cheng-Prusoff equation; QSY7-APPswe-Eu substrate 200 nM final, pH 5.0, 30° C
Sequence of soluble human BACE1 catalytic domain (P56817 75-416 limits assumed): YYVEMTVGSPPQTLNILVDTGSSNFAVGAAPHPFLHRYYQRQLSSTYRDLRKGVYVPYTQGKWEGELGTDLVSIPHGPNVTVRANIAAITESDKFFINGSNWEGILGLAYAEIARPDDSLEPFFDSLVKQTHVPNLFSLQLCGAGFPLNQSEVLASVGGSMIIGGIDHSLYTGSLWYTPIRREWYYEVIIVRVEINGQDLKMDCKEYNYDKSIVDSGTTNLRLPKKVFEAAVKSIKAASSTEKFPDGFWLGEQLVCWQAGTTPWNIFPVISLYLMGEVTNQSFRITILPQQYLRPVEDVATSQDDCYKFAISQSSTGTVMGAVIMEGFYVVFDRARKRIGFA
Experimental: A homogeneous time-resolved FRET assay can be used to determine IC50 values for inhibitors of the soluble human BACE1 catalytic domain. […] This substrate contains an N-terminal QSY7 moiety that serves as a quencher of the C-terminal Europium fluorophore (620nm Em). […] Inhibition of BACE1 cleavage of the QSY7-APP^swe-Eu substrate by inhibitors is manifested as a suppression of 620 nm fluorescence. […] The reactions are incubated at 30° C for 1.5 hours. The 620nm fluorescence is then read on a Rubystar HTRF plate reader (BMG Labtechnologies) using a 50 millisecond delay followed by a 400 millisecond acquisition time window. Inhibitor IC50 values are derived from non-linear regression analysis of concentration response curves.

| SMILES | Ki [1] [nM] | Ki [2] [nM] |
| --- | --- | --- |
| CC(=O)N1CCC2(C1)[C@@](C)(c1cc(NC(=O)c3ccc(F)cn3)ccc1F)NC(=N)N(C)S2(=O)=O (some centres unmarked) [Example 4] | 9 | 3.7 |
| COc1ccc(C(=O)Nc2ccc(F)c([C@@]3(C)NC(=N)N(C)S(=O)(=O)[C@]34CCN(Cc3cocn3)C4)c2)nc1 [Example 18] | 158 | 47 |
| COc1ccc(C(=O)Nc2ccc(F)c([C@@]3(C)NC(=N)N(C)S(=O)(=O)[C@]34CCN(CC3CCOC3)C4)c2)nc1 (some centres unmarked) [Example 20] | 188 | 51 |
| COc1ccc(C(=O)Nc2ccc(F)c([C@@]3(C)NC(=N)N(C)S(=O)(=O)[C@]34CCN(CC3CC(OC)C3)C4)c2)nc1 (some centres unmarked) [Example 21] | 201 | 91 |
| COc1ccc(C(=O)Nc2ccc(F)c([C@@]3(C)NC(=N)N(C)S(=O)(=O)[C@]34CCN(Cc3cccnc3)C4)c2)nc1 [Example 23] | 142 | 30 |
| COc1ccc(C(=O)Nc2ccc(F)c([C@@]3(C)NC(=N)N(C)S(=O)(=O)[C@]34CCN(Cc3cncnc3)C4)c2)nc1 [Example 26] | 329 | 51 |
| COc1ccc(C(=O)Nc2ccc(F)c([C@@]3(C)NC(=N)N(C)S(=O)(=O)[C@]34CCN(Cc3cnn(C)c3)C4)c2)nc1 [Example 27] | 388 | 54 |
| COc1ccc(C(=O)Nc2ccc(F)c([C@@]3(C)NC(=N)N(C)S(=O)(=O)[C@]34CCN(Cc3cnco3)C4)c2)nc1 [Example 28] | 237 | 28 |
| CN1C(=N)N[C@](C)(c2cc(NC(=O)c3ccc(F)cn3)ccc2F)[C@]2(CCN(Cc3ccccn3)C2)S1(=O)=O [Example 41] | 6 | 3 |
| CN1C(=N)N[C@](C)(c2cc(NC(=O)c3ccc(F)cn3)ccc2F)[C@@]2(CCN(Cc3ccccn3)C2)S1(=O)=O [Example 45] | 23 | 33 |
| CN1C(=N)N[C@](C)(c2cc(NC(=O)c3ccc(F)cn3)ccc2F)[C@@]2(CCN(Cc3cnn(C)c3)C2)S1(=O)=O [Example 51] | 184 | 151 |
| COc1ccc(C(=O)Nc2ccc(F)c([C@@]3(C)NC(=N)N(C)S(=O)(=O)[C@@]34CCN(S(C)(=O)=O)C4)c2)nc1 [Example 55] | 10 | 3 |
| CCS(=O)(=O)N1CC[C@@]2(C1)[C@@](C)(c1cc(NC(=O)c3ccc(OC)cn3)ccc1F)NC(=N)N(C)S2(=O)=O [Example 56] | 6 | 1 |
| COc1ccc(C(=O)Nc2ccc(F)c([C@@]3(C)NC(=N)N(C)S(=O)(=O)[C@@]34CCN(S(=O)(=O)CC(C)C)C4)c2)nc1 [Example 57] | 5 | 1 |
| COc1ccc(C(=O)Nc2ccc(F)c([C@@]3(C)NC(=N)N(C)S(=O)(=O)[C@@]34CCN(S(=O)(=O)c3ccc(F)cc3)C4)c2)nc1 [Example 58] | 20 | 3 |
| COc1ccc(C(=O)Nc2ccc(F)c([C@@]3(C)NC(=N)N(C)S(=O)(=O)[C@@]34CCN(S(=O)(=O)C3CC3)C4)c2)nc1 [Example 60] | 4 | 1 |
| COc1ccc(C(=O)Nc2ccc(F)c([C@@]3(C)NC(=N)N(C)S(=O)(=O)[C@@]34CCN(S(=O)(=O)CC3CCCO3)C4)c2)nc1 (some centres unmarked) [Example 62] | 19 | 3 |
| COc1ccc(C(=O)Nc2ccc(F)c([C@@]3(C)NC(=N)N(C)S(=O)(=O)[C@]34CCN(S(=O)(=O)C3CC3)C4)c2)nc1 [Example 64] | 140 | 40 |
| COc1ccc(C(=O)Nc2ccc(F)c([C@@]3(C)NC(=N)N(C)S(=O)(=O)[C@]34CCN(S(=O)(=O)CC3CCCO3)C4)c2)nc1 (some centres unmarked) [Example 66] | 87 | 32 |
| COc1ccc(C(=O)Nc2ccc(F)c([C@@]3(C)NC(=N)N(C)S(=O)(=O)[C@]34CCN(S(C)(=O)=O)C4)c2)nc1 [Example 68] | 205 | 35 |

More lines, in order of falling Ki [1], values ahead:

| Ki [1] [nM] | Ki [2] [nM] | SMILES |
| --- | --- | --- |
| 128 | 34 | COc1ccc(C(=O)Nc2ccc(F)c([C@@]3(C)NC(=N)N(C)S(=O)(=O)[C@]34CCN(CC3CC3)C4)c2)nc1 [Example 24] |
| 79 | 26 | COc1ccc(C(=O)Nc2ccc(F)c([C@@]3(C)NC(=N)N(C)S(=O)(=O)[C@]34CCN(Cc3ccccn3)C4)c2)nc1 [Example 22] |
| 77 | 70 | CN1C(=N)N[C@](C)(c2cc(NC(=O)c3ccc(F)cn3)ccc2F)[C@@]2(CCN(Cc3cncnc3)C2)S1(=O)=O [Example 50] |
| 74 | 54 | CN1C(=N)N[C@](C)(c2cc(NC(=O)c3ccc(F)cn3)ccc2F)[C@@]2(CCN(Cc3cnco3)C2)S1(=O)=O [Example 54] |
| 70 | 20 | COc1ccc(C(=O)Nc2ccc(F)c([C@@]3(C)NC(=N)N(C)S(=O)(=O)[C@]34CCN(Cc3cscn3)C4)c2)nc1 [Example 19] |
| 68 | 29 | COc1ccc(C(=O)Nc2ccc(F)c([C@@]3(C)NC(=N)N(C)S(=O)(=O)[C@]34CCN(S(=O)(=O)c3cn(C)cn3)C4)c2)nc1 [Example 65] |
| 61 | 73 | CCCCN1CC[C@]2(C1)[C@@](C)(c1cc(NC(=O)c3ccc(F)cn3)ccc1F)NC(=N)N(C)S2(=O)=O [Example 52] |
| 61 | 84 | CN1C(=N)N[C@](C)(c2cc(NC(=O)c3ccc(F)cn3)ccc2F)[C@@]2(CCN(Cc3ccncc3)C2)S1(=O)=O [Example 53] |
| 52 | 120 | COC1CC(CN2CC[C@]3(C2)[C@@](C)(c2cc(NC(=O)c4ccc(F)cn4)ccc2F)NC(=N)N(C)S3(=O)=O)C1 (some centres unmarked) [Example 44] |
| 51 | 58 | CN1C(=N)N[C@](C)(c2cc(NC(=O)c3ccc(F)cn3)ccc2F)[C@@]2(CCN(CC3CC3)C2)S1(=O)=O [Example 47] |
| 40 | 54 | CN1C(=N)N[C@](C)(c2cc(NC(=O)c3ccc(F)cn3)ccc2F)[C@@]2(CCN(Cc3cccnc3)C2)S1(=O)=O [Example 46] |
| 40 | 20 | COc1ccc(C(=O)Nc2ccc(F)c([C@@]3(C)NC(=N)N(C)S(=O)(=O)[C@]34CCN(S(=O)(=O)c3cn[nH]c3)C4)c2)nc1 [Example 67] |
| 38 | 6 | COc1ccc(C(=O)Nc2ccc(F)c([C@@]3(C)NC(=N)N(C)S(=O)(=O)[C@@]34CCN(S(=O)(=O)c3cn(C)cn3)C4)c2)nc1 [Example 61] |
| 30 | 19.5 | CN1C(=N)N[C@](C)(c2cc(NC(=O)c3ccc(F)cn3)ccc2F)C2(CCNC2)S1(=O)=O (some centres unmarked) [Example 2] |
| 25 | 32 | CN1C(=N)N[C@](C)(c2cc(NC(=O)c3ccc(F)cn3)ccc2F)[C@@]2(CCN(Cc3cscn3)C2)S1(=O)=O [Example 42] |
| 24 | 12 | COc1ccc(C(=O)Nc2ccc(F)c([C@@]3(C)NC(=N)N(C)S(=O)(=O)[C@]34CCN(S(=O)(=O)c3ccccc3)C4)c2)nc1 [Example 63] |
| 21 | 33 | CN1C(=N)N[C@](C)(c2cc(NC(=O)c3ccc(F)cn3)ccc2F)[C@@]2(CCN(Cc3cocn3)C2)S1(=O)=O [Example 49] |
| 16 | 3 | COc1ccc(C(=O)Nc2ccc(F)c([C@@]3(C)NC(=N)N(C)S(=O)(=O)[C@@]34CCN(S(=O)(=O)c3ccccc3)C4)c2)nc1 [Example 59] |
| 9 | 5 | CN1C(=N)N[C@](C)(c2cc(NC(=O)c3ccc(F)cn3)ccc2F)C2(CCN(S(C)(=O)=O)C2)S1(=O)=O (some centres unmarked) [Example 3] |
| 5.7 | 2.8 | CC(C)CC(=O)N1CCC2(C1)[C@@](C)(c1cc(NC(=O)c3ccc(F)cn3)ccc1F)NC(=N)N(C)S2(=O)=O (some centres unmarked) [Example 7] |
| 5.2 | 2.7 | CN1C(=N)N[C@](C)(c2cc(NC(=O)c3ccc(F)cn3)ccc2F)C2(CCN(C(=O)CC3CC3)C2)S1(=O)=O (some centres unmarked) [Example 6] |
| 4.5 | 3.4 | CN1C(=N)N[C@](C)(c2cc(NC(=O)c3ccc(F)cn3)ccc2F)C2(CCN(Cc3ccccc3)C2)S1(=O)=O (some centres unmarked) [Example 1] |
| 3.1 | 2 | CN1C(=N)N[C@](C)(c2cc(NC(=O)c3ccc(F)cn3)ccc2F)C2(CCN(C(=O)C3CC3)C2)S1(=O)=O (some centres unmarked) [Example 5] |

From patent EP2934149B1, “C6-AZASPIRO IMINOTHIADIAZINE DIOXIDES AS BACE INHIBITORS” (Merck Sharp & Dohme Corp., priority 2012, dated 2014)
